Nine molecules from PubChem BioAssay (NCI) can be followed below.

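The compound was tested at five concentrations on cells cultured in 96-well plates, with a 48-hour exposure period. Here, GI50 denotes the concentration required for 50% inhibition of growth. The concentration for full growth arrest is given as TGI.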

Among the test systems are MDA-MB-435; TK-10 renal; UACC-62 melanoma; A498 renal; NCI-H522 lung; U251 CNS; SF-539 CNS; LOX IMVI melanoma; A549 NSCLC; 786-0 renal.
What all share (assay): NCI-60 cell line screen, 48 h

Regarding `COC(=O)CCC(=O)NC1=C(Nc2ccccc2)C(=O)c2ccccc2C1=O`, the TGI with MDA-MB-435 came out at 3.45 µM; in the assay on TK-10 renal it was 41.6 µM; in the assay with UACC-62 melanoma it was 7.55 µM; in the assay on A498 renal it was 28.6 µM; in the assay on NCI-H522 lung, 29.2 µM; with U251 CNS, 24.2 µM. Also, the TGI in the assay on SF-539 CNS worked out at 29.1 µM; with LOX IMVI melanoma, 13.9 µM; in the assay on A549 NSCLC, 37 µM; with 786-0 renal it was 25.4 µM.

On to `COC(=O)[C@@H](NS(=O)(=O)CC12CCC(CC1)C2(C)C)C(C)(C)C`, for which the TGI in the assay on MDA-MB-435, with TK-10 renal, with UACC-62 melanoma, in the assay with A498 renal, in the assay with NCI-H522 lung and with U251 CNS was above 100 µM in each case. Besides, the TGI in the assay with SF-539 CNS, in the assay on LOX IMVI melanoma, in the assay on A549 NSCLC and with 786-0 renal was above 100 µM each time.

In the case of `CCOc1ccc2nc3nc(=O)[nH]c(C)c3c(NC(C)(CO)CO)c2c1`, the TGI with MDA-MB-435, with TK-10 renal, in the assay with UACC-62 melanoma, in the assay on A498 renal, in the assay on NCI-H522 lung and with U251 CNS was above 100 µM each time. Moreover, the TGI with SF-539 CNS, with LOX IMVI melanoma, in the assay on A549 NSCLC and in the assay on 786-0 renal was above 100 µM in each case.

In the case of `Cc1c(OCc2cccc3ccccc23)ccc2c(=O)cc(SCCN3CCOCC3)oc12`, the TGI with MDA-MB-435, with TK-10 renal, in the assay on UACC-62 melanoma, in the assay with A498 renal, in the assay on NCI-H522 lung and in the assay with U251 CNS was above 100 µM each time. The TGI with SF-539 CNS, in the assay with LOX IMVI melanoma, in the assay on A549 NSCLC and in the assay on 786-0 renal was above 100 µM throughout.

On to `COc1cc2c3c(n(C)c(=O)c2cc1OC)-c1cc2c(cc1/C3=C\CCCCCBr)OCO2`, for which the GI50 with MDA-MB-435 was 19.2 µM; with UACC-62 melanoma, 3.87 µM; with SF-539 CNS, 5.7 µM. The TGI in the assay with MDA-MB-435 is above 100 µM; in the assay with TK-10 renal it was 55.8 µM; in the assay on UACC-62 melanoma, 29 µM; in the assay on A498 renal, 46 µM; with NCI-H522 lung it was 52.4 µM; in the assay with U251 CNS, 24.1 µM. Also, the TGI is 89.8 µM with SF-539 CNS, 13.7 µM in the assay with LOX IMVI melanoma, above 100 µM in the assay on A549 NSCLC and above 100 µM in the assay with 786-0 renal.

With `COc1cccc(NC(=O)CC(=O)n2nc(-c3ccccc3)c(N=Nc3ccc(Cl)cc3)c2-c2ccccc2)c1`, the TGI with MDA-MB-435 was above 100 µM; in the assay with TK-10 renal it was above 100 µM; in the assay with UACC-62 melanoma it was above 72.7 µM; in the assay on A498 renal, above 83.1 µM; in the assay on NCI-H522 lung, 59.8 µM; in the assay on U251 CNS, 77.9 µM. For the same molecule, the TGI in the assay with SF-539 CNS is above 74.8 µM; with LOX IMVI melanoma it was 38.4 µM; in the assay on A549 NSCLC, above 85.7 µM; in the assay with 786-0 renal it was 64.4 µM.

Consider `Oc1cccc2c(Br)ccnc12`, for which the TGI with MDA-MB-435 was 34.3 µM; in the assay with TK-10 renal, above 100 µM; in the assay with UACC-62 melanoma, 11.1 µM; in the assay with A498 renal, 39.1 µM; with NCI-H522 lung, 17.1 µM; in the assay with U251 CNS, 20.4 µM. The TGI in the assay on SF-539 CNS is above 49.1 µM; in the assay with LOX IMVI melanoma it was 12.7 µM; in the assay on A549 NSCLC it was above 100 µM; in the assay on 786-0 renal, above 100 µM.

Take `CC(c1ccccc1)n1cncc1C(=O)NN1CCN(C)CC1` (stereo not drawn): the TGI with MDA-MB-435, in the assay with TK-10 renal, with UACC-62 melanoma, with A498 renal, in the assay on NCI-H522 lung and in the assay on U251 CNS was above 10 µM in each case. Further, the TGI with SF-539 CNS, with LOX IMVI melanoma, in the assay with A549 NSCLC and with 786-0 renal was above 10 µM throughout.

In the case of `COc1cccc2c1OC1c3ccccc3OCC1(O)C2` (stereo not drawn), the TGI in the assay with MDA-MB-435, with TK-10 renal, in the assay with UACC-62 melanoma, in the assay with A498 renal, in the assay with NCI-H522 lung and in the assay with U251 CNS was above 100 µM in each case. In addition, the TGI in the assay with SF-539 CNS, in the assay with LOX IMVI melanoma, in the assay on A549 NSCLC and with 786-0 renal was above 100 µM each time.
